Data reported in ChEMBL document CHEMBL4325834, “De Novo Molecular Design of a Novel Octapeptide That Inhibits In Vivo Melanogenesis and Has Great Transdermal Ability” (J Med Chem, 2018).
Activity calls are given as the source filed them. No cut-off for these calls is given here. Where a SMILES comes first, the peptide text is derived from it.

Tests used:
[1] = Antioxidant activity assessed as DPPH free radical scavenging activity at 80 uM after 30 mins relative to control; type: functional
[2] = Antioxidant activity assessed as ABTS radical scavenging activity at 80 uM after 10 mins relative to control; type: functional
[3] = Reducing power of the compound assessed as reducing Fe3+ power at 80 uM using K3Fe(CN)6 in pH 6.6 phosphate buffer relative to control
Tyrosinase = target: T1, Tyrosinase (Agaricus bisporus, UniProt O42713); assay: Inhibition of mushroom tyrosinase using L-dopa as substrate assessed as reduction in dopachrome production after 20 mins by spectrophotometry
T1 sequence (O42713 whole entry): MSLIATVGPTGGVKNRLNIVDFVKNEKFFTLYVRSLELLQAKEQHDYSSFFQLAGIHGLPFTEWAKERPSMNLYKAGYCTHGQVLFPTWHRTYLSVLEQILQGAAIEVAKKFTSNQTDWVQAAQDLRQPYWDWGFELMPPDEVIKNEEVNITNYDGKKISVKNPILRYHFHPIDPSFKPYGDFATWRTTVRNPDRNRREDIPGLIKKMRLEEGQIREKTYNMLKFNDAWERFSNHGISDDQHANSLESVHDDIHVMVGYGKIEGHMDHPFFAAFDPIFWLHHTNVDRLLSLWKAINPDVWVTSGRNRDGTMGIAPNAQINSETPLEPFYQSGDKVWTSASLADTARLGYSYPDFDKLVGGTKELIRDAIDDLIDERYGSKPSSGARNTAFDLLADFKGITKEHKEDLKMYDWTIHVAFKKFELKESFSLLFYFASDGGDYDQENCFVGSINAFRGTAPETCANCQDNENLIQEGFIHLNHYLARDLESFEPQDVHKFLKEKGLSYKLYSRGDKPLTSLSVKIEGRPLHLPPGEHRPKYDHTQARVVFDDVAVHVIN

[4] = Hemolytic activity against human erythrocytes assessed as amount of hemoglobin released from lysed cells up to 150 uM relative to control; type: ADME, cell-based, Erythrocyte; conditions: read-out: Activity
B16 [5] = assay: Cytotoxicity against mouse B16 cells up to 150 uM by MTT assay relative to control; type: cell-based
HaCaT = assay: Cytotoxicity against human HaCaT cells up to 150 uM by MTT assay relative to control; type: cell-based
[6] = target: T2, Tyrosinase (Mus musculus) (UniProt P11344); assay: Inhibition of TYR activity in mouse B16 cells assessed as increase in whitening at 20 uM preincubated for 72 hrs followed L-dopa substrate addition and measured after 4 hrs by fluorescence microscopy; type: cell-based
T2 sequence (whole entry): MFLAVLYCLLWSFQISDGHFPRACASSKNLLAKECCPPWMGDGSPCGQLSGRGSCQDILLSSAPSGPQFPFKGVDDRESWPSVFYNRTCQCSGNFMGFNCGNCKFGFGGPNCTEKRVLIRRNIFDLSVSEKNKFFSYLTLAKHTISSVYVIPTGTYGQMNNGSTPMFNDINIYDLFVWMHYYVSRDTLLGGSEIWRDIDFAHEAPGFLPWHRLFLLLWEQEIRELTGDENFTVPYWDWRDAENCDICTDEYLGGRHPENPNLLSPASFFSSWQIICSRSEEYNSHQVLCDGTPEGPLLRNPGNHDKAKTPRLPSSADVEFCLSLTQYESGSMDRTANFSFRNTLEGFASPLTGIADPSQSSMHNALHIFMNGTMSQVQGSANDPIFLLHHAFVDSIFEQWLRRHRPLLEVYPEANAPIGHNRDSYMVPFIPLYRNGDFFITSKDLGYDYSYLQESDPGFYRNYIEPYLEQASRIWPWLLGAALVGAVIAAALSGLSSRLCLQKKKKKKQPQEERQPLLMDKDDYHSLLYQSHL

[7] = target: T2, Tyrosinase (Mus musculus); assay: Inhibition of TYR activity in mouse B16 cells assessed as effect on pallet after exfoliation at 20 uM preincubated for 72 hrs followed L-dopa substrate addition and measured after 4 hrs by fluorescence microscopy; type: cell-based
[8] = target: T2, Tyrosinase (Mus musculus); assay: Inhibition of TYR activity in mouse B16 cells assessed as melanin levels post exfoliation at 20 uM after 72 hrs by spectrophotometric analysis relative to control; type: cell-based; set-up: scale not given: the % may be the effect or the level left
[9] = target: T2, Tyrosinase (Mus musculus); assay: Inhibition of TYR activity in mouse B16 cells 20 uM using L-dopa as substrate after 72 hrs relative to control; type: cell-based
B16 [10] = assay: Downregulation of TYR protein expression in mouse B16 cells after 72 hrs by Western blot analysis; type: functional, cell-based
B16 [11] = assay: Downregulation of MITF protein expression in mouse B16 cells after 72 hrs by Western blot analysis; type: functional, cell-based
[12] = target: T2, Tyrosinase (Mus musculus); assay: Inhibition of TYR activity in mouse B16 cells assessed as reduction in melanin levels at 20 uM after 24 hrs by spectrophotometric analysis relative to control; type: cell-based
[13] = target: T3, Tyrosinase (Agaricus bisporus) (UniProt O42713); assay: Potency index, ratio of IC50 for arbutin to IC50 for test compound for inhibition of mushroom tyrosinase using L-dopa as substrate assessed as reduction in dopachrome production after 20 mins by spectrophotometry
T3 sequence (whole entry): T1 sequence (O42713 whole entry)

[14] = target: T3, Tyrosinase (Agaricus bisporus); assay: Inhibition of mushroom tyrosinase using L-dopa as substrate assessed as reduction in L-dopa oxidation at IC50 by spectrophotometry

IC50 (Tyrosinase): 73 µM
inhibition [6]: Active
Activity [7]: Active
Activity [8]: 63.5%
inhibition [9]: 16%
inhibition [12]: Active
Ratio IC50 [13]: 10
inhibition [14]: Active
SMILES: CC(C)[C@H](NC(=O)[C@H](CO)NC(=O)[C@H](CCCNC(=N)N)NC(=O)[C@H](CS)NC(=O)[C@@H](NC(=O)[C@H](CCCNC(=N)N)NC(=O)[C@@H](N)Cc1ccccc1)[C@@H](C)O)C(=O)N[C@@H](CS)C(=O)O (H-FRTCRSVC-OH)
Activity [1]: 94%
Activity [2]: 84%
Activity [3]: 0.25
hemolysis [4]: 3%
Activity (B16 [5]): 3%
Activity (HaCaT): 2%
inhibition (B16 [10]): Active
inhibition (B16 [11]): Active
